This experiment has as its system Mycobacterium tuberculosis. Nature of the experiment: Antimycobacterial activity against multidrug-resistant Mycobacterium tuberculosis assessed as growth inhibition at 0.3125 to 5 ug/mL by resazurin assay. Type of experiment: functional. On the technique in general: The colour change of resazurin is a common sign of viable cells or microbes.

≈ marks a conversion by molar mass, not a printed value. Bounds are passed on as bounds.

As to `COc1ccc(S(=O)(=O)n2c(COc3ccc([N+](=O)[O-])cc3)nc3cc(Br)ccc32)c(OC)c1`, the minimum inhibitory concentration (MIC) was above 50 µg/mL.

As for `Cc1c(F)cccc1S(=O)(=O)n1c(COc2ccc([N+](=O)[O-])cc2)nc2ccc(Br)cc21`, the MIC was above 50 µg/mL.

Turning to `O=[N+]([O-])c1ccc(OCc2nc3cc(Br)ccc3n2S(=O)(=O)c2ccc(Cl)cc2Cl)cc1`, the MIC is above 50 µg/mL.

On to `O=[N+]([O-])c1ccc(OCc2nc3cc(Br)ccc3n2S(=O)(=O)c2ccccc2Cl)cc1`, for which the MIC worked out at 6.25 µg/mL (≈ 12 µM).

As to `COc1ccc(OC)c(S(=O)(=O)n2c(COc3ccc([N+](=O)[O-])cc3)nc3cc(Br)ccc32)c1`, the MIC was above 50 µg/mL.

`Cc1c(F)cccc1S(=O)(=O)n1c(COc2ccc([N+](=O)[O-])cc2)nc2cc(Br)ccc21`: the MIC is above 50 µg/mL.

On to `COc1ccc(OC)c(S(=O)(=O)n2c(COc3ccc([N+](=O)[O-])cc3)nc3ccc(Br)cc32)c1`, for which the minimal inhibitory concentration (MIC) was determined as 25 µg/mL (≈ 45.6 µM).

For the compound `Cc1cccc(S(=O)(=O)n2c(COc3ccc([N+](=O)[O-])cc3)nc3ccc(Br)cc32)c1`, the minimal inhibitory concentration (MIC) was above 50 µg/mL.

Take `N#Cc1cccc(S(=O)(=O)n2c(COc3ccc([N+](=O)[O-])cc3)nc3cc(Br)ccc32)c1`: the MIC was above 50 µg/mL.

For `COc1ccc(S(=O)(=O)n2c(COc3ccc([N+](=O)[O-])cc3)nc3ccc(Br)cc32)c(OC)c1`, the MIC was 2.5 µg/mL (≈ 4.56 µM).

As for `O=[N+]([O-])c1ccc(OCc2nc3cc(Br)ccc3n2S(=O)(=O)c2cc(F)ccc2F)cc1`, the minimum inhibitory concentration (MIC) is 6.25 µg/mL (≈ 11.9 µM).

In the case of `Nc1ccc(OCc2nc3cc(Br)ccc3[nH]2)cc1`, the minimum inhibitory concentration (MIC) came out at 25 µg/mL (≈ 78.6 µM).

Regarding `O=[N+]([O-])c1ccc(OCc2nc3cc(Br)ccc3n2S(=O)(=O)c2cc(Cl)ccc2Cl)cc1`, the MIC was above 50 µg/mL.

As to `CO[C@H]1/C=C/O[C@@]2(C)Oc3c(C)c(O)c4c(O)c(c(/C=N/N5CCN(C)CC5)c(O)c4c3C2=O)NC(=O)/C(C)=C\C=C\[C@H](C)[C@H](O)[C@@H](C)[C@@H](O)[C@@H](C)[C@H](OC(C)=O)[C@@H]1C` [RIFAMPIN], the MIC is 25 µg/mL (≈ 30.4 µM).

As to `N#Cc1cccc(S(=O)(=O)n2c(COc3ccc([N+](=O)[O-])cc3)nc3ccc(Br)cc32)c1`, the MIC was above 50 µg/mL.

For the compound `O=[N+]([O-])c1ccc(OCc2nc3ccc(Br)cc3n2S(=O)(=O)c2cc(Cl)ccc2Cl)cc1`, the MIC is above 50 µg/mL.

As to `O=[N+]([O-])c1ccc(OCc2nc3cc(Br)ccc3n2S(=O)(=O)c2ccccc2[N+](=O)[O-])cc1`, the MIC worked out at 6.25 µg/mL (≈ 11.7 µM).

As for `NNC(=O)c1ccncc1` [ISONIAZID], the MIC was 12.5 µg/mL (≈ 91.1 µM).

`O=[N+]([O-])c1ccc(OCc2nc3ccc(Br)cc3n2S(=O)(=O)c2ccccc2[N+](=O)[O-])cc1`: the MIC is above 50 µg/mL.

`O=[N+]([O-])c1ccc(OCc2nc3ccc(Br)cc3n2S(=O)(=O)c2cc(F)ccc2F)cc1`: the MIC is above 50 µg/mL.

`Cc1cccc(S(=O)(=O)n2c(COc3ccc([N+](=O)[O-])cc3)nc3cc(Br)ccc32)c1`: the MIC is above 50 µg/mL.

What is called MIC is the smallest concentration in the dilution series that meets the test's criterion for growth inhibition.
